Data published in the supplement of paper PMC10307832.

Columns and labels:
Assay in all cases: relative viability (nuclei count vs DMSO), 5 days (fraction); higher = more cells survive
[1] = tested on: NCI-H1975
Method in brief: (§1)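 Relative viability is defined as nuclei in treated wells over nuclei in vehicle wells. Duplicate plates were run and medians reported. Lung cancer cell lines in 1536-well plates were dosed by pin tool one day after seeding, with one drug or with a fixed anchor-drug dose plus five library-drug doses (not always all listed) in √10 steps, and nuclei were counted after 5 days.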

[2] = tested on: HOP-62
Method in brief: as §1

[3] = tested on: NCI-H1734
Method in brief: as §1

[4] = tested on: NCI-H2347
Method in brief: as §1

[5] = tested on: HCC-15
Method in brief: as §1

[6] = tested on: SW 1573
Method in brief: as §1

[7] = tested on: NCI-H2228
Method in brief: as §1

[8] = tested on: NCI-H522
Method in brief: as §1

[9] = tested on: SK-LU-1
Method in brief: as §1

[10] = tested on: NCI-H1755
Method in brief: as §1

[11] = tested on: LC-2-ad
Method in brief: as §1

[12] = tested on: NCI-H647
Method in brief: as §1

[13] = tested on: LOU-NH91
Method in brief: as §1

[14] = tested on: NCI-H358
Method in brief: as §1

[15] = tested on: NCI-H1915
Method in brief: as §1

[16] = tested on: RERF-LC-KJ
Method in brief: as §1

[17] = tested on: NCI-H2342
Method in brief: as §1

[18] = tested on: NCI-H2126
Method in brief: as §1

[19] = tested on: LXF-289
Method in brief: as §1

[20] = tested on: NCI-H1792
Method in brief: as §1

[21] = tested on: PC-3 [JPC-3]
Method in brief: as §1

[22] = tested on: A-427
Method in brief: as §1

[23] = tested on: NCI-H460
Method in brief: as §1

## Clc1ccc(Nc2nnc(Cc3ccncc3)c3ccccc23)cc1 [Vatalanib] + CCNC(=O)c1noc(-c2cc(C(C)C)c(O)cc2O)c1-c1ccc(CN2CCOCC2)cc1 [Luminespib] (partner 0.01 µM)
[1]; first compound 0.04 µM
  relative viability: 0.154
[1]; first compound 0.1265 µM
  relative viability: 0.238
[1]; first compound 0.4 µM
  relative viability: 0.237
[1]; first compound 1.265 µM
  relative viability: 0.29
[1]; first compound 4 µM
  relative viability: 0.177
[2]; first compound 0.04 µM
  relative viability: 0.928
[2]; first compound 0.1265 µM
  relative viability: 0.925
[2]; first compound 0.4 µM
  relative viability: 0.895
[2]; first compound 1.265 µM
  relative viability: 0.883
[2]; first compound 4 µM
  relative viability: 0.959
[3]; first compound 0.04 µM
  relative viability: 0.224
[3]; first compound 0.1265 µM
  relative viability: 0.153
[3]; first compound 0.4 µM
  relative viability: 0.193
[3]; first compound 1.265 µM
  relative viability: 0.167
[3]; first compound 4 µM
  relative viability: 0.192
[4]; first compound 0.04 µM
  relative viability: 0.416
[4]; first compound 0.1265 µM
  relative viability: 0.425
[4]; first compound 0.4 µM
  relative viability: 0.254
[4]; first compound 1.265 µM
  relative viability: 0.549
[4]; first compound 4 µM
  relative viability: 0.509
[5]; first compound 0.04 µM
  relative viability: 0.42
[5]; first compound 0.1265 µM
  relative viability: 0.457
[5]; first compound 0.4 µM
  relative viability: 0.181
[5]; first compound 1.265 µM
  relative viability: 0.234
[5]; first compound 4 µM
  relative viability: 0.235
[6]; first compound 0.04 µM
  relative viability: 0.425
[6]; first compound 0.1265 µM
  relative viability: 0.321
[6]; first compound 0.4 µM
  relative viability: 0.302
[6]; first compound 1.265 µM
  relative viability: 0.437
[6]; first compound 4 µM
  relative viability: 0.264
[7]; first compound 0.04 µM
  relative viability: 0.145
[7]; first compound 0.1265 µM
  relative viability: 0.102
[7]; first compound 0.4 µM
  relative viability: 0.163
[7]; first compound 1.265 µM
  relative viability: 0.115
[7]; first compound 4 µM
  relative viability: 0.157
[8]; first compound 0.04 µM
  relative viability: 1.02
[8]; first compound 0.1265 µM
  relative viability: 1.23
[8]; first compound 0.4 µM
  relative viability: 1.2
[8]; first compound 1.265 µM
  relative viability: 1.15
[8]; first compound 4 µM
  relative viability: 1.1
[9]; first compound 0.04 µM
  relative viability: 0.21
[9]; first compound 0.1265 µM
  relative viability: 0.197
[9]; first compound 0.4 µM
  relative viability: 0.241
[9]; first compound 1.265 µM
  relative viability: 0.218
[9]; first compound 4 µM
  relative viability: 0.232
[10]; first compound 0.04 µM
  relative viability: 0.419
[10]; first compound 0.1265 µM
  relative viability: 0.439
[10]; first compound 0.4 µM
  relative viability: 0.556
[10]; first compound 1.265 µM
  relative viability: 0.316
[10]; first compound 4 µM
  relative viability: 0.453
[11]; first compound 0.04 µM
  relative viability: 1.1
[11]; first compound 0.1265 µM
  relative viability: 1.04
[11]; first compound 1.265 µM
  relative viability: 0.997
[11]; first compound 4 µM
  relative viability: 0.948
[12]; first compound 0.04 µM
  relative viability: 0.128
[12]; first compound 0.1265 µM
  relative viability: 0.0977
[12]; first compound 0.4 µM
  relative viability: 0.169
[12]; first compound 1.265 µM
  relative viability: 0.187
[12]; first compound 4 µM
  relative viability: 0.138
[13]; first compound 0.04 µM
  relative viability: 0.371
[13]; first compound 0.1265 µM
  relative viability: 0.331
[13]; first compound 1.265 µM
  relative viability: 0.368
[13]; first compound 4 µM
  relative viability: 0.315
[14]; first compound 0.04 µM
  relative viability: 0.498
[14]; first compound 0.1265 µM
  relative viability: 0.381
[14]; first compound 0.4 µM
  relative viability: 0.353
[14]; first compound 1.265 µM
  relative viability: 0.345
[14]; first compound 4 µM
  relative viability: 0.308
[15]; first compound 0.04 µM
  relative viability: 0.847
[15]; first compound 0.1265 µM
  relative viability: 0.7
[15]; first compound 0.4 µM
  relative viability: 0.828
[15]; first compound 1.265 µM
  relative viability: 0.846
[15]; first compound 4 µM
  relative viability: 0.758
[16]; first compound 0.04 µM
  relative viability: 1.17
[16]; first compound 0.1265 µM
  relative viability: 1.22
[16]; first compound 0.4 µM
  relative viability: 1.2
[16]; first compound 1.265 µM
  relative viability: 1.05
[16]; first compound 4 µM
  relative viability: 1.07
[17]; first compound 0.04 µM
  relative viability: 0.684
[17]; first compound 0.1265 µM
  relative viability: 0.684
[17]; first compound 0.4 µM
  relative viability: 0.822
[17]; first compound 1.265 µM
  relative viability: 0.869
[17]; first compound 4 µM
  relative viability: 0.658
[18]; first compound 0.04 µM
  relative viability: 0.925
[18]; first compound 0.1265 µM
  relative viability: 0.864
[18]; first compound 0.4 µM
  relative viability: 0.919
[18]; first compound 1.265 µM
  relative viability: 0.94
[18]; first compound 4 µM
  relative viability: 0.908
[19]; first compound 0.04 µM
  relative viability: 0.703
[19]; first compound 0.1265 µM
  relative viability: 0.634
[19]; first compound 0.4 µM
  relative viability: 0.734
[19]; first compound 1.265 µM
  relative viability: 0.623
[19]; first compound 4 µM
  relative viability: 0.633
[20]; first compound 0.04 µM
  relative viability: 0.475
[20]; first compound 0.1265 µM
  relative viability: 0.492
[20]; first compound 0.4 µM
  relative viability: 0.4
[20]; first compound 1.265 µM
  relative viability: 0.564
[20]; first compound 4 µM
  relative viability: 0.387
[21]; first compound 0.04 µM
  relative viability: 0.697
[21]; first compound 0.1265 µM
  relative viability: 0.688
[21]; first compound 0.4 µM
  relative viability: 0.7
[21]; first compound 1.265 µM
  relative viability: 0.706
[21]; first compound 4 µM
  relative viability: 0.723
[22]; first compound 0.04 µM
  relative viability: 0.861
[22]; first compound 0.1265 µM
  relative viability: 0.909
[22]; first compound 0.4 µM
  relative viability: 1.03
[22]; first compound 1.265 µM
  relative viability: 0.927
[22]; first compound 4 µM
  relative viability: 0.948
[23]; first compound 0.04 µM
  relative viability: 0.0407
[23]; first compound 0.1265 µM
  relative viability: 0.0276
[23]; first compound 0.4 µM
  relative viability: 0.0374
[23]; first compound 1.265 µM
  relative viability: 0.0261
[23]; first compound 4 µM
  relative viability: 0.0364
